Experimental data taken from the NIST ThermoML archive (doi:10.1021/acs.jced.8b00662).

Assay: xn = mol fraction of the nth substance listed
Settings: 100 kPa, Liquid; for viscosity: Falling or rolling sphere viscometry; for mass density: Vibrating tube method

CC(C)C1CCCCC1 [(1-methylethyl)cyclohexane] + OCC1CC1
Settings	mass density [kg/m3]	viscosity [mPa·s]
293.15 K, x1 = 0.0996	891.76	–
293.15 K, x1 = 0.1003	–	3.277
293.15 K, x1 = 0.1991	874.27	2.592
293.15 K, x1 = 0.2995	859.61	2.18
293.15 K, x1 = 0.3996	847.35	1.862
293.15 K, x1 = 0.4993	836.86	1.621
293.15 K, x1 = 0.5997	827.69	–
293.15 K, x1 = 0.619	–	1.406
293.15 K, x1 = 0.7011	819.71	1.288
293.15 K, x1 = 0.7967	812.9	1.192
293.15 K, x1 = 0.9026	806.51	1.115
293.15 K, x1 = 1	802.14	1.093
298.15 K, x1 = 0.0996	887.68	–
298.15 K, x1 = 0.1003	–	2.876
298.15 K, x1 = 0.1991	870.17	2.286
298.15 K, x1 = 0.2995	855.52	1.937
298.15 K, x1 = 0.3996	843.25	1.668
298.15 K, x1 = 0.4993	832.77	1.463
298.15 K, x1 = 0.5997	823.61	–
298.15 K, x1 = 0.619	–	1.281
298.15 K, x1 = 0.7011	815.65	1.18
298.15 K, x1 = 0.7967	808.85	1.099
298.15 K, x1 = 0.9026	802.52	1.033
298.15 K, x1 = 1	798.24	1.016
303.15 K, x1 = 0.0996	883.58	–
303.15 K, x1 = 0.1003	–	2.523
303.15 K, x1 = 0.1991	866.05	2.028
303.15 K, x1 = 0.2995	851.39	1.729
303.15 K, x1 = 0.3996	839.12	1.499
303.15 K, x1 = 0.4993	828.64	1.325
303.15 K, x1 = 0.5997	819.5	–
303.15 K, x1 = 0.619	–	1.17
303.15 K, x1 = 0.7011	811.56	1.085
303.15 K, x1 = 0.7967	804.8	1.015
303.15 K, x1 = 0.9026	798.52	0.958
303.15 K, x1 = 1	794.34	0.947
308.15 K, x1 = 0.0996	879.43	–
308.15 K, x1 = 0.1003	–	2.227
308.15 K, x1 = 0.1991	861.89	1.807
308.15 K, x1 = 0.2995	847.23	1.551
308.15 K, x1 = 0.3996	834.96	1.356
308.15 K, x1 = 0.4993	824.49	1.207
308.15 K, x1 = 0.5997	815.37	–
308.15 K, x1 = 0.619	–	1.075
308.15 K, x1 = 0.7011	807.46	1.001
308.15 K, x1 = 0.7967	800.75	0.941
308.15 K, x1 = 0.9026	794.49	0.893
308.15 K, x1 = 1	790.43	0.886
313.15 K, x1 = 0.0996	875.25	–
313.15 K, x1 = 0.1003	–	1.912
313.15 K, x1 = 0.1991	857.7	1.617
313.15 K, x1 = 0.2995	843.04	1.399
313.15 K, x1 = 0.3996	830.77	1.231
313.15 K, x1 = 0.4993	820.31	1.103
313.15 K, x1 = 0.5997	811.21	–
313.15 K, x1 = 0.619	–	0.99
313.15 K, x1 = 0.7011	803.33	0.927
313.15 K, x1 = 0.7967	796.66	0.876
313.15 K, x1 = 0.9026	790.46	0.834
313.15 K, x1 = 1	786.51	0.831
318.15 K, x1 = 0.0996	871.02	–
318.15 K, x1 = 0.1003	–	1.706
318.15 K, x1 = 0.1991	853.46	1.454
318.15 K, x1 = 0.2995	838.79	1.266
318.15 K, x1 = 0.3996	826.54	1.121
318.15 K, x1 = 0.4993	816.09	1.012
318.15 K, x1 = 0.5997	807.02	–
318.15 K, x1 = 0.619	–	0.916
318.15 K, x1 = 0.7011	799.17	0.861
318.15 K, x1 = 0.7967	792.54	0.817
318.15 K, x1 = 0.9026	786.41	0.782
318.15 K, x1 = 1	782.59	0.782
323.15 K, x1 = 0.0996	866.78	–
323.15 K, x1 = 0.1003	–	1.525
323.15 K, x1 = 0.1991	849.2	1.312
323.15 K, x1 = 0.2995	834.53	1.151
323.15 K, x1 = 0.3996	822.28	1.027
323.15 K, x1 = 0.4993	811.84	0.932
323.15 K, x1 = 0.5997	802.8	–
323.15 K, x1 = 0.619	–	0.849
323.15 K, x1 = 0.7011	794.99	0.802
323.15 K, x1 = 0.7967	788.4	0.764
323.15 K, x1 = 0.9026	782.33	0.735
323.15 K, x1 = 1	778.66	0.738
328.15 K, x1 = 0.0996	862.47	–
328.15 K, x1 = 0.1003	–	1.372
328.15 K, x1 = 0.1991	844.88	1.189
328.15 K, x1 = 0.2995	830.2	1.05
328.15 K, x1 = 0.3996	817.96	0.943
328.15 K, x1 = 0.4993	807.55	0.861
328.15 K, x1 = 0.5997	798.54	–
328.15 K, x1 = 0.619	–	0.791
328.15 K, x1 = 0.7011	790.77	0.75
328.15 K, x1 = 0.7967	784.24	0.717
328.15 K, x1 = 0.9026	778.25	0.692
328.15 K, x1 = 1	774.72	0.698
333.15 K, x1 = 0.0996	858.1	–
333.15 K, x1 = 0.1003	–	1.239
333.15 K, x1 = 0.1991	840.5	1.082
333.15 K, x1 = 0.2995	825.83	0.961
333.15 K, x1 = 0.3996	813.6	0.869
333.15 K, x1 = 0.4993	803.22	0.799
333.15 K, x1 = 0.5997	794.24	–
333.15 K, x1 = 0.619	–	0.738
333.15 K, x1 = 0.7011	786.52	0.702
333.15 K, x1 = 0.7967	780.04	0.674
333.15 K, x1 = 0.9026	774.14	0.654
333.15 K, x1 = 1	770.77	0.661
338.15 K, x1 = 0.0996	853.67	–
338.15 K, x1 = 0.1003	–	1.124
338.15 K, x1 = 0.1991	836.06	0.988
338.15 K, x1 = 0.2995	821.41	0.883
338.15 K, x1 = 0.3996	809.2	0.804
338.15 K, x1 = 0.4993	798.85	0.743
338.15 K, x1 = 0.5997	789.91	–
338.15 K, x1 = 0.619	–	0.69
338.15 K, x1 = 0.7011	782.24	0.66
338.15 K, x1 = 0.7967	775.82	0.636
338.15 K, x1 = 0.9026	770.01	0.619
338.15 K, x1 = 1	766.81	0.628
343.15 K, x1 = 0.0996	849.17	–
343.15 K, x1 = 0.1003	–	1.023
343.15 K, x1 = 0.1991	831.57	0.905
343.15 K, x1 = 0.2995	816.93	0.815
343.15 K, x1 = 0.3996	804.75	0.746
343.15 K, x1 = 0.4993	794.44	0.693
343.15 K, x1 = 0.5997	785.54	–
343.15 K, x1 = 0.619	–	0.648
343.15 K, x1 = 0.7011	777.93	0.622
343.15 K, x1 = 0.7967	771.58	0.601
343.15 K, x1 = 0.9026	765.88	0.587
343.15 K, x1 = 1	762.84	0.598
